Values joined by “and” are separate entries in the source; they are usually repeats but may differ in a detail not shown here. Identical values can stand only once. Toxic doses and inconclusive results are not listed. No stated cut-off is given here; in the data, active means T/C of 150% or more; inactive means T/C below 125%.
Test system: L1210 leukemia ip in BDF1 mice, survival T/C
Assay: NCI In Vivo Anticancer Drug Screen. Data for tumor model L1210 Leukemia (intraperitoneal) in B6D2F1 (BDF1) mice
Settings: endpoint: mean survival time, higher = longer survival
Summary of the method: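 Tumor cells were implanted, animals were treated, and survival was followed. The result divides the treated measurement by the vehicle-control measurement.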

[1] = dose: 50.0 mg/kg/injection, schedule: Q01DX009 (ip), vehicle: Klucel (hydroxypropylcellulose) (HPC)
[2] = dose: 100.0 mg/kg/injection, schedule: Q04DX003 (ip), vehicle: Klucel (hydroxypropylcellulose) (HPC)
[3] = dose: 100.0 mg/kg/injection, schedule: Q01DX001 (ip), vehicle: saline
[4] = dose: 200.0 mg/kg/injection, schedule: Q04DX003 (ip), vehicle: Klucel (hydroxypropylcellulose) (HPC)
[5] = dose: 400.0 mg/kg/injection, schedule: Q04DX003 (ip), vehicle: Klucel (hydroxypropylcellulose) (HPC)
[6] = dose: 100.0 mg/kg/injection, schedule: Q04DX002 (ip), vehicle: saline with Tween-80
[7] = dose: 200.0 mg/kg/injection, schedule: Q04DX002 (ip), vehicle: saline with Tween-80
[8] = dose: 400.0 mg/kg/injection, schedule: Q04DX002 (ip), vehicle: saline with Tween-80
[9] = dose: 100.0 mg/kg/injection, schedule: Q01DX009 (ip), vehicle: Klucel (hydroxypropylcellulose) (HPC)
[10] = dose: 200.0 mg/kg/injection, schedule: Q01DX009 (ip), vehicle: Klucel (hydroxypropylcellulose) (HPC)
[11] = dose: 400.0 mg/kg/injection, schedule: Q01DX009 (ip), vehicle: Klucel (hydroxypropylcellulose) (HPC)
[12] = dose: 200.0 mg/kg/injection, schedule: Q01DX001 (ip), vehicle: saline
[13] = dose: 100.0 mg/kg/injection, schedule: Q04DX003 (ip), vehicle: saline with Tween-80
[14] = dose: 200.0 mg/kg/injection, schedule: Q04DX003 (ip), vehicle: saline with Tween-80
[15] = dose: 400.0 mg/kg/injection, schedule: Q04DX003 (ip), vehicle: saline with Tween-80
[16] = dose: 50.0 mg/kg/injection, schedule: Q01DX001 (ip), vehicle: saline
[17] = dose: 400.0 mg/kg/injection, schedule: Q01DX001 (ip), vehicle: saline

Measured: T/C

C[P+](c1ccc(F)cc1)(c1ccc(F)cc1)c1ccc(F)cc1
inactive: dose: 25.0 mg/kg/injection, schedule: Q01DX009 (ip), vehicle: Klucel (hydroxypropylcellulose) (HPC) 98 % of control | [1] 96 % of control | [2] 89 % of control

C[CH2][Hg][Cl]
inactive: dose: 12.5 mg/kg/injection, schedule: Q04DX002 (ip), vehicle: Klucel (hydroxypropylcellulose) (HPC) 97 % of control | dose: 25.0 mg/kg/injection, schedule: Q04DX002 (ip), vehicle: Klucel (hydroxypropylcellulose) (HPC) 94 % of control | [3] 97 % of control

O=C1CC(C(=O)O)C(c2ccccc2F)O1 (configuration not stated)
inactive: [2] 98 % of control | [4] 101 % of control | [5] 103 % of control

COc1ccc(C)cc1NC(=O)OCCOc1ccc(Br)cc1
inactive: dose: 50.0 mg/kg/injection, schedule: Q01DX009 (ip), vehicle: saline with Tween-80 90 % of control | dose: 100.0 mg/kg/injection, schedule: Q01DX009 (ip), vehicle: saline with Tween-80 97 % of control | dose: 200.0 mg/kg/injection, schedule: Q01DX009 (ip), vehicle: saline with Tween-80 87 % of control

O=C(O)/C=C/C(=O)NCCNC(=O)/C=C/C(=O)O
inactive: [2] 96 % of control | [4] 93 % of control | [5] 96 % of control

CCCCOCCOC(=O)C1OC1(C)c1ccccc1 (configuration not stated)
inactive: [6] 100 % of control | [7] 102 % of control | [8] 106 % of control

CN(C)CCC1(c2ccccc2)CCN(C)C1=O (configuration not stated)
inactive: dose: 75.0 mg/kg/injection, schedule: Q01DX001 (ip), vehicle: carboxymethylcellulose (CMC) 95 % of control | dose: 150.0 mg/kg/injection, schedule: Q01DX001 (ip), vehicle: carboxymethylcellulose (CMC) 95 % of control

O=C(O)/C(=C\c1ccc([N+](=O)[O-])cc1)CCc1ccccc1
inactive: [9] 91 % of control | [10] 92 % of control | [11] 92 % of control

Cc1cc(OC(=O)Nc2ccc(F)cc2)c(C(C)C)cc1Cl
inactive: dose: 50.0 mg/kg/injection, schedule: Q01DX001 (ip), vehicle: carboxymethylcellulose (CMC) 90 % of control | dose: 50.0 mg/kg/injection, schedule: Q01DX009 (ip), vehicle: carboxymethylcellulose (CMC) 99 % of control and 101 % of control | dose: 50.0 mg/kg/injection, schedule: Q04DX002 (ip), vehicle: carboxymethylcellulose (CMC) 93 % of control and 96 % of control | dose: 100.0 mg/kg/injection, schedule: Q01DX001 (ip), vehicle: carboxymethylcellulose (CMC) 103 % of control | dose: 100.0 mg/kg/injection, schedule: Q01DX009 (ip), vehicle: carboxymethylcellulose (CMC) 96 % of control and 99 % of control | dose: 100.0 mg/kg/injection, schedule: Q04DX002 (ip), vehicle: carboxymethylcellulose (CMC) 100 % of control and 106 % of control | dose: 200.0 mg/kg/injection, schedule: Q01DX001 (ip), vehicle: carboxymethylcellulose (CMC) 92 % of control | dose: 200.0 mg/kg/injection, schedule: Q01DX009 (ip), vehicle: carboxymethylcellulose (CMC) 94 % of control and 95 % of control | dose: 200.0 mg/kg/injection, schedule: Q04DX002 (ip), vehicle: carboxymethylcellulose (CMC) 95 % of control and 100 % of control

CC1CC2=C(CCCO2)C(C)C1 (configuration not stated)
inactive: [12] 95 % of control

C[n+]1ccsc1
inactive: [13] 104 % of control | [14] 103 % of control | [15] 97 % of control

Clc1ccc(Nc2cc[n+]3ccccc3c2)cc1Cl
inactive: dose: 25.0 mg/kg/injection, schedule: Q01DX001 (ip), vehicle: Klucel (hydroxypropylcellulose) (HPC) 98 % of control | dose: 50.0 mg/kg/injection, schedule: Q01DX001 (ip), vehicle: Klucel (hydroxypropylcellulose) (HPC) 96 % of control | dose: 100.0 mg/kg/injection, schedule: Q01DX001 (ip), vehicle: Klucel (hydroxypropylcellulose) (HPC) 102 % of control and 117 % of control

O=C(Nc1ccc(Br)cc1)Oc1ccccc1C(=O)OCc1ccccc1
inactive: dose: 100.0 mg/kg/injection, schedule: Q04DX002 (ip), vehicle: Klucel (hydroxypropylcellulose) (HPC) 97 % of control | dose: 200.0 mg/kg/injection, schedule: Q04DX002 (ip), vehicle: Klucel (hydroxypropylcellulose) (HPC) 87 % of control

COc1ccc2c(=O)c(O)c(-c3ccc(OC)c(OC)c3)oc2c1
inactive: [16] 97 % of control | [3] 94 % of control | [12] 92 % of control | [17] 94 % of control

Brc1ccc(N=Nc2ccccc2)cc1
inactive: [2] 103 % of control | [4] 97 % of control | [5] 103 % of control

CCN=C(N)SCC
inactive: dose: 100.0 mg/kg/injection, schedule: Q04DX002 (ip), vehicle: saline 95 % of control | dose: 200.0 mg/kg/injection, schedule: Q04DX002 (ip), vehicle: saline 95 % of control

C[C@]12CC[C@H]3[C@@H](CC=C4C[C@@H](O)CC[C@@]43C)[C@@H]1CC[C@@H]2N
inactive: dose: 100.0 mg/kg/injection, schedule: Q01DX001 (sc), vehicle: steriod suspending solution 98 % of control | [6] 105 % of control | dose: 200.0 mg/kg/injection, schedule: Q01DX001 (sc), vehicle: steriod suspending solution 101 % of control | [7] 112 % of control | dose: 400.0 mg/kg/injection, schedule: Q01DX001 (sc), vehicle: steriod suspending solution 101 % of control | [8] 118 % of control

CCOC(=O)C1C(=O)C(CN(CCCl)CCCl)C(=O)C(C(=O)OCC)C1c1ccc(OC)c(OC)c1OC (configuration not stated)
inactive: [9] 90 % of control | [10] 92 % of control | [11] 95 % of control

O=C(COc1ccccc1[N+](=O)[O-])Nc1cccnc1
inactive: [13] 104 % of control | [14] 98 % of control | [15] 98 % of control

NCc1nc2ccccc2[nH]1
inactive: [16] 101 % of control | [3] 103 % of control | [12] 95 % of control | [17] 95 % of control

CC(=O)/C=C/c1ccccc1O
inactive: dose: 75.0 mg/kg/injection, schedule: Q04DX002 (ip), vehicle: gum acacia 98 % of control | dose: 150.0 mg/kg/injection, schedule: Q04DX002 (ip), vehicle: gum acacia 100 % of control | dose: 300.0 mg/kg/injection, schedule: Q04DX002 (ip), vehicle: gum acacia 100 % of control

Nc1ncnc(N)c1NC(=O)c1ccc(SCc2ccccc2)cc1
inactive: [9] 93 % of control | [11] 88 % of control

CCCCN(CCCC)C(=O)C1C=C2c3cccc4[nH]cc(c34)CC2N(C)C1 (configuration not stated)
inactive: dose: 100.0 mg/kg/injection, schedule: Q01DX009 (ip), vehicle: water 104 % of control | dose: 200.0 mg/kg/injection, schedule: Q01DX009 (ip), vehicle: water 110 % of control

OC1C2CCN(CC2)C1C(c1ccccc1)c1ccccc1 (configuration not stated)
inactive: dose: 25.0 mg/kg/injection, schedule: Q04DX003 (ip), vehicle: saline with Tween-80 95 % of control | dose: 50.0 mg/kg/injection, schedule: Q04DX003 (ip), vehicle: saline with Tween-80 98 % of control | [13] 96 % of control and 87 % of control

COC(=O)c1ccccc1NC(=O)Nc1ccccc1F
inactive: [1] 90 % of control | [9] 96 % of control | [10] 93 % of control

CC1(C)C2CCC(C2)C1C(=O)O (configuration not stated)
inactive: [13] 95 % of control | [14] 91 % of control | [15] 100 % of control

CCCN=Cc1ccccc1O.CCCN=Cc1ccccc1O.[Ni]
inactive: dose: 75.0 mg/kg/injection, schedule: Q01DX001 (ip), vehicle: other 95 % of control | dose: 150.0 mg/kg/injection, schedule: Q01DX001 (ip), vehicle: other 108 % of control

Clc1ccc(C2SCCS2)c(Cl)c1
inactive: [9] 105 % of control | [10] 108 % of control | [11] 124 % of control
